{
  "source": "patent US20070249562A1",
  "about": "“TREATMENT OF ATRIAL FIBRILLATION” (priority 2006, published 2007)",
  "key": {"Atrial Fibrillation": {"test_system": "Atrial Fibrillation", "assay": "Randomized, double-blind placebo-controlled study in high-risk CABG patients; atrial fibrillation by 12-lead ECG", "assay_type": "in vivo, human", "details": "for Reduction of AF compared to placebo: from POD 4 to POD 90", "excerpt": "A randomized, double-blind placebo-controlled, dose-ranging, parallel-arm multi-center study was undertaken, on high-risk patients undergoing CABG surgery with cardiopulmonary bypass. Patients were identified as “high risk” if they had two or more of the following risk factors: • Age greater than 65 years • Current smoker • History of diabetes mellitus requiring treatment other than diet • Evidence of left ventricular dysfunction or congestive heart failure • History of a previous non-disabling stroke, transient ischemic attack, or carotid endarterectomy • Urgent CABG intervention defined as the need to stay in the hospital (although the patient may be operated on within a normal scheduling routine). • History of myocardial infarction that occurred more than 48 hours but less than 6 weeks prior to CABG surgery • Prior peripheral artery surgery or angioplasty • Moderate renal dysfunction defined as […] >133 μmol/L (1.5 mg/dl), but <250 μmol/L (2.8 mg/dl) • Presence of at least one asymptomatic carotid artery stenosis (>50% ) either in one or two carotid arteries. Approximately 900 high risk pre-CABG patients in 42 different treatment centers in North America were screened and randomized to three groups of approximately 300 patients each, prior to their bypass surgery, as follows. Patients were either placed in a control group (placebo), treated with 250 mg/day of pyridoxal-5′-phosphate, (250 mg/day), or treated with 750 mg day of pyridoxal-5′-phosphate (750 mg/day). The first dose of study medication was administered at 3-10 hours prior to CABG surgery. In the event of surgery delay or rescheduling, a second pre-operative dose of pyridoxal-5′-phosphate was administered so that all patients received study medication 3-10 hours before surgery. Treatment continued for 30 days after surgery (post operative day (POD) 30). Patients received follow-up evaluations up to and including postoperative day (POD) 4, on POD 30 and on POD 90. 12-lead ECG were taken at baseline (Pre-Op), POD 2, POD 4, POD 30 and POD 90 with patients on placebo, 250 mg/day pyridoxal-5′-phosphate (P5P), and 750 mg/day pyridoxal-5′-phosphate. The data from baseline, POD 4 and POD 90 were analyzed."}, "[1]": {"details": "in water, alcohol, and ether; cited from earlier work"}, "[2]": {"test_system": "ATP induced calcium ion influx into cells (P2X purinoceptors)", "details": "a recent evaluation; suggested due to inhibition of P2X purinoceptors; cited from earlier work"}},
  "data": [
    {"smiles": "Cc1ncc(COP(=O)(O)O)c(C=O)c1O", "note": "[pyridoxal-5′-phosphate, 3-hydroxy-2-methyl-5-[(phosphonooxy)methyl]-4-pyridine-carboxaldehyde]", "values": [
      {"measurement": "Reduction of AF compared to placebo", "setting": "Atrial Fibrillation; 250 mg dose, p=0.0084", "value": 51.75, "unit": "%"},
      {"measurement": "Reduction of AF compared to placebo", "setting": "Atrial Fibrillation; 750 mg dose, p=0.013", "value": 49.08, "unit": "%"},
      {"measurement": "Number of patients who had AF at POD 4", "setting": "Atrial Fibrillation; 250 mg/day P5P (n = 301)", "value": 56},
      {"measurement": "Percent of patients who had AF at POD 4", "setting": "Atrial Fibrillation; 250 mg/day P5P (n = 301)", "value": 18.60, "unit": "%"},
      {"measurement": "Number of patients who had AF at POD 4", "setting": "Atrial Fibrillation; 750 mg/day P5P (n = 302)", "value": 63},
      {"measurement": "Percent of patients who had AF at POD 4", "setting": "Atrial Fibrillation; 750 mg/day P5P (n = 302)", "value": 20.86, "unit": "%"},
      {"measurement": "Number of patient who had AF at POD 90", "setting": "Atrial Fibrillation; 250 mg/day P5P (n = 301)", "value": 17},
      {"measurement": "Percent of patient who had AF at POD 90", "setting": "Atrial Fibrillation; 250 mg/day P5P (n = 301)", "value": 5.65, "unit": "%"},
      {"measurement": "Number of patient who had AF at POD 90", "setting": "Atrial Fibrillation; 750 mg/day P5P (n = 302)", "value": 18},
      {"measurement": "Percent of patient who had AF at POD 90", "setting": "Atrial Fibrillation; 750 mg/day P5P (n = 302)", "value": 5.96, "unit": "%"},
      {"measurement": "Solubility", "setting": "[1]", "value": "essentially insoluble"},
      {"measurement": "Effect on ATP induced calcium ion influx into cells", "setting": "[2]", "value": "inhibits"}
    ]}
  ]
}
